Experimental data: publication PMC5515969, “Effects of 31 FDA approved small-molecule kinase inhibitors on isolated rat liver mitochondria” (Archives of Toxicology, 2016)
Read-outs that look alike come from different tables or passages of the source.

What was measured:
[1] = system: isolated rat liver mitochondria; experiment: Mitochondrial oxygen consumption (glutamate/malate or succinate driven, state 4 and state 3); type: biochemical; as to State 3 respiration driven by succinate at 10XCmax: key: 0 indicates that the drug had no effects (negative); as to State 3 respiration driven by succinate at 1XCmax: key: 0 indicates that the drug had no effects (negative)
Outline: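 Rat liver mitochondria (1 mg/ml protein) exposed 5 min to kinase inhibitors in 0.1% DMSO, then O2 consumption measured by Clark-type electrode with glutamate/malate or succinate (state 4), ADP added after 3 min (state 3). Rates normalized to 0.1% DMSO controls set to 1.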

[2] = system: RCC I; experiment: RCC I activity in submitochondrial particles; type: biochemical, rat; parameters: key to RCC I at 10XCmax / RCC I at 100XCmax / RCC I at 50XCmax / RCC I at 30XCmax / RCC I at 20XCmax: activity relative to DMSO-treated controls (control set as 1 = 100%); details: for RCC activity I: 15 min, DMSO-treated = 100
Outline: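 Abs 340 nm (I/V) or 600 nm (II), 1-min reads × 6 min; 550 nm (III, IV), 10-s reads × 2 min. RCC I = rotenone-free minus rotenone rate. DMSO control = 1.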

[3] = target: T1, RCC II (Rattus norvegicus, UniProt P21913+Q641Z9+Q6PCT8+Q920L2); experiment: RCC II activity in submitochondrial particles; type: biochemical; parameters: key: activity relative to DMSO-treated controls (control set as 1 = 100%); details: relative to DMSO treated samples
T1 construct: Submitochondrial particles were prepared by subjecting the intact mitochondria to three successive freeze–thaw cycles; from tissue; host or cells: rat liver mitochondria, used as submitochondrial particles
T1 sequence (Q920L2 35-656): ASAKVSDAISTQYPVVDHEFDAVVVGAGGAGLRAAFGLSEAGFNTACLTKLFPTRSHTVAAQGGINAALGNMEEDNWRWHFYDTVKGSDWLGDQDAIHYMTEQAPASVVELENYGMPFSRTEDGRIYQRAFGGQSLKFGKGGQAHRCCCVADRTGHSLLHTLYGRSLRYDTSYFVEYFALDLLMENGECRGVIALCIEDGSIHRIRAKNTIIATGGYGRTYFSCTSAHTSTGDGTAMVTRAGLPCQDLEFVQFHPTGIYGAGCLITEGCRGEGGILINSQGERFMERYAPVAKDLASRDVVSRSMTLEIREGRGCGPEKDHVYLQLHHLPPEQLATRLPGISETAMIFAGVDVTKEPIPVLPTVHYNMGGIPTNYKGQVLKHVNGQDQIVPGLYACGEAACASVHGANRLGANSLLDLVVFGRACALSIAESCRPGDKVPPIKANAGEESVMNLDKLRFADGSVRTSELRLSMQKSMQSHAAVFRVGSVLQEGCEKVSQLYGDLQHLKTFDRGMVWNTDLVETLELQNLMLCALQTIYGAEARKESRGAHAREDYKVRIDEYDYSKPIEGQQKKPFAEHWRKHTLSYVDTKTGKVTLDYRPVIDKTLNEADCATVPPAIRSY
T1 sequence (P21913 31-282): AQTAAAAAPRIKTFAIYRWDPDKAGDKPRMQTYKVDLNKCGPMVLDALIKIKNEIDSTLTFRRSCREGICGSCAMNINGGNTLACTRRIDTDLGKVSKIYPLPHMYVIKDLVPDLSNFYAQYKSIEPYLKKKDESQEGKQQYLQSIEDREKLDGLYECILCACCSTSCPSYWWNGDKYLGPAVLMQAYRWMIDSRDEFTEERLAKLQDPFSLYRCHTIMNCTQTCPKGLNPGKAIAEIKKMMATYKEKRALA
T1 sequence (Q641Z9 1-169): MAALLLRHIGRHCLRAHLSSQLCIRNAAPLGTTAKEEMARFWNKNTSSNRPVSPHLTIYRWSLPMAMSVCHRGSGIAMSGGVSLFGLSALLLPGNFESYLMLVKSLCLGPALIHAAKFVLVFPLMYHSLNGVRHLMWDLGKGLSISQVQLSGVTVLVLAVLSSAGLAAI
T1 sequence (Q6PCT8 57-159): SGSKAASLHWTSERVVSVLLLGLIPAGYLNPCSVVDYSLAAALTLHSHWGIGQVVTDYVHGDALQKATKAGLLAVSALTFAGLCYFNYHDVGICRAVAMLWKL
Outline: (§1)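 Kinase inhibitors were preincubated 15 min with submitochondrial particles (1 mg/ml) before complex activities were measured. RCC I was the rotenone-sensitive portion (activity without minus with rotenone). RCC I/V was read at 340 nm and RCC II at 600 nm every 1 min for 6 min. RCC III and IV were read at 550 nm every 10 s for 2 min. Activities are normalized to DMSO controls set as 1.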

[4] = system: RCC IV; experiment: RCC IV activity in submitochondrial particles; type: biochemical, rat; parameters: key to RCC IV at 50XCmax / RCC IV at 100XCmax: activity relative to DMSO-treated controls (control set as 1 = 100%); details: for RCC activity IV: 15 min, DMSO-treated = 100
Outline: as §1

[5] = system: RCC V; experiment: RCC V activity in submitochondrial particles; type: biochemical, rat; details: for RCC activity V: 15 min, DMSO-treated = 100; as to RCC V at 5XCmax: key: 0 indicates that the drug had no effects (negative)
Outline: as §1

[6] = system: isolated rat liver mitochondria; experiment: Mitochondrial inner membrane potential (MMP), Rhodamine 123; type: biochemical; details: difference in signal between KI and DMSO treated samples at the end of experiments
Text: Fig. 3 KI effects on mitochondrial inner membrane potential (MMP). […] In a, c, data are means and standard derivations from three separate experiments. *p < 0.05 as compared to DMSO-treated samples at the end of experiments. In b, data are means of two independent experiments

[7] = system: isolated rat liver mitochondria; experiment: Mitochondrial swelling (absorbance at 535 nm); type: biochemical; as to Swelling 5XCmax: key: 0 indicates that the drug had no effects (negative)
[8] = system: isolated rat liver mitochondria
[9] = cited from earlier work
[10] = cited from earlier work; remark: listed apart in the source
[11] = 1XCmax, DMSO treated samples set as 1
[12] = 2.5XCmax, DMSO treated samples set as 1
[13] = 5XCmax, DMSO treated samples set as 1
[14] = 10XCmax, DMSO treated samples set as 1
[15] = 20XCmax, DMSO treated samples set as 1
[16] = 30XCmax, DMSO treated samples set as 1
[17] = 50XCmax, DMSO treated samples set as 1
[18] = 100XCmax, DMSO treated samples set as 1

COc1cc2c(Nc3ccc(Br)cc3F)ncnc2cc1OCC1CCN(C)CC1 [Vandetanib]
State 3 respiration driven by glutamate/malate at 1XCmax [1, 11]: 0
State 3 respiration driven by succinate at 1XCmax [1, 11]: 0
State 4 respiration driven by glutamate/malate at 1XCmax [1, 11]: 0
State 4 respiration driven by succinate at 1XCmax [1, 11]: 0
State 3 respiration driven by glutamate/malate at 2.5XCmax [1, 12]: 0
State 3 respiration driven by succinate at 2.5XCmax [1, 12]: 0
State 4 respiration driven by glutamate/malate at 2.5XCmax [1, 12]: 0
State 4 respiration driven by succinate at 2.5XCmax [1, 12]: 0
State 3 respiration driven by glutamate/malate at 5XCmax [1, 13]: 0
State 3 respiration driven by succinate at 5XCmax [1, 13]: 0
State 4 respiration driven by glutamate/malate at 5XCmax [1, 13]: 0
State 4 respiration driven by succinate at 5XCmax [1, 13]: 0
State 3 respiration driven by glutamate/malate at 10XCmax [1, 14]: 0
State 3 respiration driven by succinate at 10XCmax [1, 14]: 0
State 4 respiration driven by glutamate/malate at 10XCmax [1, 14]: 0
State 4 respiration driven by succinate at 10XCmax [1, 14]: 0
State 3 respiration driven by glutamate/malate at 20XCmax [1, 15]: 0
State 3 respiration driven by succinate at 20XCmax [1, 15]: 0
State 4 respiration driven by glutamate/malate at 20XCmax [1, 15]: 0
State 4 respiration driven by succinate at 20XCmax [1, 15]: 0
State 3 respiration driven by glutamate/malate at 30XCmax [1, 16]: 0
State 3 respiration driven by succinate at 30XCmax [1, 16]: 0
State 4 respiration driven by glutamate/malate at 30XCmax [1, 16]: 0
State 4 respiration driven by succinate at 30XCmax [1, 16]: 0
State 3 respiration driven by glutamate/malate at 50XCmax [1, 17]: 0
State 3 respiration driven by succinate at 50XCmax [1, 17]: 0
State 4 respiration driven by glutamate/malate at 50XCmax [1, 17]: 0
State 4 respiration driven by succinate at 50XCmax [1, 17]: 0
State 3 respiration driven by glutamate/malate at 100XCmax [1, 18]: 0
State 3 respiration driven by succinate at 100XCmax [1, 18]: 0
State 4 respiration driven by glutamate/malate at 100XCmax [1, 18]: 0
State 4 respiration driven by succinate at 100XCmax [1, 18]: 0
effect on mitochondrial oxygen consumption ([1]; up to 100-fold Cmax or highest testable concentration): no effects
RCC I at 10XCmax ([2]; 10XCmax, relative to DMSO treated samples): 0
RCC activity I ([2]; 50-fold Cmax): 87.71 ± 0.58 % of control
RCC I at 50XCmax ([2]; 50XCmax, relative to DMSO treated samples): 87.71±0.58
RCC activity I ([2]; 100-fold Cmax): 65.88 ± 7.15 % of control
RCC I at 100XCmax ([2]; 100XCmax, relative to DMSO treated samples): 65.88±7.15
lowest concentration inhibiting RCC I ([2]; submitochondrial particles): 50 fold Cmax
RCC II at 1.0XCmax ([3]; 1.0XCmax): 0
RCC II at 2.5XCmax ([3]; 2.5XCmax): 0
RCC II at 5XCmax ([3]; 5XCmax): 0
RCC II at 10XCmax ([3]; 10XCmax): 0
RCC II at 20XCmax ([3]; 20XCmax): 0
RCC II at 30XCmax ([3]; 30XCmax): 0
RCC II at 50XCmax ([3]; 50XCmax): 0
RCC II at 100XCmax ([3]; 100XCmax): 0
RCC activity IV ([4]; 50-fold Cmax): 100.56 ± 2.67 % of control
RCC IV at 50XCmax ([4]; 50XCmax, relative to DMSO treated samples, in %): 0
RCC activity IV ([4]; 100-fold Cmax): 103.06 ± 12.96 % of control
RCC V at 5XCmax ([5]; 5XCmax, relative to DMSO treated samples): 0
RCC activity V ([5]; 50-fold Cmax): 95.65 ± 4.66 % of control
RCC activity V ([5]; 100-fold Cmax): 85.15 ± 8.36 % of control
MMP measured by Rhodamine 123 at 1XCmax ([6]; 1XCmax): 0
MMP measured by Rhodamine 123 at 2.5XCmax ([6]; 2.5XCmax): 0
MMP measured by Rhodamine 123 at 5XCmax ([6]; 5XCmax): 0
MMP measured by Rhodamine 123 at 10XCmax ([6]; 10XCmax): 0
MMP measured by Rhodamine 123 at 20XCmax ([6]; 20XCmax): 0
MMP measured by Rhodamine 123 at 30XCmax ([6]; 30XCmax): 0
MMP measured by Rhodamine 123 at 50XCmax ([6]; 50XCmax): 0
MMP measured by Rhodamine 123 at 100XCmax ([6]; 100XCmax): 0
lowest concentration causing mitochondrial swelling [7]: 100 fold Cmax
Swelling 1XCmax ([7]; 1XCmax, difference in signal between KI and DMSO treated samples at the end of experiments): 0
Swelling 2.5XCmax ([7]; 2.5XCmax, difference in signal between KI and DMSO treated samples at the end of experiments): 0
Swelling 5XCmax ([7]; 5XCmax, difference in signal between KI and DMSO treated samples at the end of experiments): 0
Swelling 10XCmax ([7]; 10XCmax, difference in signal between KI and DMSO treated samples at the end of experiments): 0
Swelling 20XCmax ([7]; 20XCmax, difference in signal between KI and DMSO treated samples at the end of experiments): 0
Swelling 30XCmax ([7]; 30XCmax, difference in signal between KI and DMSO treated samples at the end of experiments): 0
Swelling 50XCmax ([7]; 50XCmax, difference in signal between KI and DMSO treated samples at the end of experiments): 0
Swelling 100XCmax ([7]; 100XCmax, difference in signal between KI and DMSO treated samples at the end of experiments): 0.22±0.06
effect on mitochondrial swelling ([7]; up to 100-fold Cmax or highest testable concentration, 25 µM calcium chloride): significant mitochondrial swelling
Cytochrome c release 1XCmax ([8]; 1XCmax, positive control alamethicin treated samples): 0
Cytochrome c release 2.5XCmax ([8]; 2.5XCmax, positive control alamethicin treated samples): 0
Cytochrome c release 5XCmax ([8]; 5XCmax, positive control alamethicin treated samples): 0
Cytochrome c release 10XCmax ([8]; 10XCmax, positive control alamethicin treated samples): 0
Cytochrome c release 20XCmax ([8]; 20XCmax, positive control alamethicin treated samples): 0
Cytochrome c release 30XCmax ([8]; 30XCmax, positive control alamethicin treated samples): 0
Cytochrome c release 50XCmax ([8]; 50XCmax, positive control alamethicin treated samples): 0
Cytochrome c release 100XCmax ([8]; 100XCmax, positive control alamethicin treated samples): 18.47±3.80 percentage of the positive control group
lowest concentration causing cytochrome c release ([8]; rat, 30 min, pH 7.4): 100 fold Cmax
Cmax ([9]; human therapeutic Cmax at FDA recommended dosages, ref product labeling and drug approval packages at the official FDA website): 1.8 µM
Cmax ([9]; read-out: Cmax at µM, therapeutic maximal blood concentration, ref product labeling): 1.8 µM
Cmax ([9]; therapeutic maximal blood concentration, ref product labeling): 857 ng/mL
DILI potential (based on labeling) ([10]; 1 = DILI positive, 0 = negative, ref product labeling): 0
DILI potential (based on labeling) ([10]; ref FDA product labeling): 0
